Experimental data published in patent US5981698A, “Antimicrobial polypeptides” (CyberChemics, Inc., priority 1997, dated 1999).
Peptide text beside a SMILES is read from it.

Columns and labels:
[1] = Solubility (optical density readings); assay type: physicochemical
From the text: (§1) Table III lists the approximate pharmacokinetics of synthetic peptides described in the present invention which solubilize readily, persist in conformationally active secondary structures in vivo, and induce lysis of representative bacteria, yeast and fungi. These determinations derive from optical density readings (O.D.) and rely on spectrophotometric absorbance from known initial concentrations as reference standards. The optimal therapeutic index for dosage and effective antimicrobial inhibition of a particular polypeptide or salt thereof range between 10-100 and follow routinely without elaborate laboratory determinations by those skilled in the art of pharmacokinetics and metabolic pathways using, for instance, various cytochrome and liver enzymes in vivo.

[2] = Biostability half-life, mammalian; assay type: in vitro ADME
From the text: as §1

[3] = Biostability half-life, yeast; assay type: in vitro ADME
From the text: as §1

[4] = Biostability half-life, E. coli; assay type: in vitro ADME
From the text: as §1

E. coli(25922) = assay: Minimum inhibitory concentration, broth microdilution in Mueller-Hinton media; assay type: cell-based, Escherichia coli; conditions: E. coli (ATCC 25922), Gram negative
From the text: (§2) Table III lists the minimum inhibitory concentration (ug/mL) for the various organisms assayed in Mueller-Hinton growth media. Details of the microbiological techniques employed are available to those skilled in the art, for instance from the American Type Tissue Culture Catalog (ATCC, Maryland) or DIFCO Manual, 10th Edition, 1984, pp. 78-80. For instance, a cultured solution of the bacterial strains Escherichia coli (American Tissue Culture Collection, Maryland) ATCC […] and Pseudomonas aeruginosa ATCC 27853 can be tested to model Gram-negative bacteria. Bacteria were grown overnight at 37 C. in Mueller-Hinton broth, reinoculated and incubated at 37 C. to reach the exponential phase of bacterial growth [i.e. a final bacterial suspension cantaining from 100,000 to 500,000 colony-forming units [(CFU)/ml]. In 96 well tissue culture plates, peptides dissolved in distilled water were added to the bacterial suspension at concentrations varying between 1000 to 2 ug/mL derived from serial dilutions, and then incubated overnight at 37 C.

Ps. Aruginosa(13883) = assay: as above; assay type: cell-based, Pseudomonas aeruginosa; conditions: Ps. Aruginosa (ATCC 13883), Gram negative
From the text: as §2

Staph aureus(25923) = assay: as above; assay type: cell-based; conditions: Staph aureus (ATCC 25923), Gram positive
From the text: as §2

Pichia = assay: Minimum inhibitory concentration, broth microdilution; assay type: cell-based; conditions: Yeast Pichia
From the text: as §2

Sac.cerv. = assay: as above; assay type: cell-based; conditions: Yeast Sac.cerv.
From the text: as §2

[5] = system: representative bacteria, yeast and fungi; assay: Antimicrobial action (general statement); assay type: cell-based
From the text: as §2, with “In 96 well tissue culture plates, peptides dissolved in distilled water were added to the bacterial suspension at concentrations varying between 1000 to 2 ug/mL derived from serial dilutions, and then incubated overnight at 37 C.” left out
Table III lists the approximate pharmacokinetics of synthetic peptides described in the present invention which solubilize readily, persist in conformationally active secondary structures in vivo, and induce lysis of representative bacteria, yeast and fungi. These determinations derive from optical density readings (O.D.) and rely on spectrophotometric absorbance from known initial concentrations as reference standards. […]

Row | Compound | Solubility [1] | Biostability Half-life Mammalian [2] | Biostability Half-life Yeast [3] | Biostability Half-life E. coli [4] | Minimum Inhibitory Concentration (MIC) (E. coli(25922)) | Minimum Inhibitory Concentration (MIC) (Ps. Aruginosa(13883)) | Minimum Inhibitory Concentration (MIC) (Staph aureus(25923)) | Minimum Inhibitory Concentration (MIC) (Pichia) | Minimum Inhibitory Concentration (MIC) (Sac.cerv.) | solubility relative to B.t. fragment SEQ. 2 ([1]; ratio SEQ. 1 / SEQ. 2) | antimicrobial potency [5]
1 | CC[C@H](C)[C@H](NC(=O)[C@H](CC(C)C)NC(=O)[C@H](CC(N)=O)NC(=O)[C@H](CCCNC(=N)N)NC(=O)[C@H](CC(C)C)NC(=O)[C@H](CCC(=O)O)NC(=O)[C@H](CO)NC(=O)[C@H](CC(C)C)NC(=O)[C@@H](NC(=O)[C@H](CCCNC(=N)N)NC(=O)[C@H](CCCCN)NC(=O)CNC(=O)[C@@H](NC(=O)[C@H](CC(C)C)NC(=O)[C@H](CO)NC(=O)CNC(=O)[C@@H](N)C(C)C)C(C)C)[C@@H](C)CC)C(N)=O [SEQ. ID 2, VGSLVGKRILSELRNLI] (H-VGSLVGKRILSELRNLI-NH2) | 16.50 ug/100 g | 100.00 h | 20.00 h | 10.00 h | – | – | – | – | – | – | –
2 | GIGTLLGKKKTKFLKNILKL [SEQ. ID 1, 20-residue antimicrobial peptide, modified from a Bacillus thuringiensis delta-endotoxin fragment] | 85.09 ug/100 g | 30.00 h | 20.00 h | 10.00 h | 16.00 µg/mL | 32.00 µg/mL | 63.00 µg/mL | 8.00 µg/mL | 16.00 µg/mL | 5 times | sub-micromolar
